Experimental findings from patent publication US9603876B2, “Compositions and methods for restoring gastrointestinal microbiota following antibiotic treatment” (New York University, priority 2008, dated 2017) are described below.

Common to all, as to assay type: in vivo, C57/B6 mice
Assay [1] in a line: Body composition (fat mass, lean mass, % body fat, bone mineral density) by DEXA in sub-therapeutic antibiotic treated (STAT) mice. The settings on record: at 6 to 9 weeks, sub-therapeutic dose in drinking water, vs control mice. An excerpt: C57/B6 mice were obtained at weaning (21 days) from Jackson Laboratories (Bar Harbor, Me.). They were weighed and then distributed in cages so that the mean weights of the mice in each cage were equal. The mice were then allowed to adjust to the NYU animal facility. At day 23 of life, the antibiotic-exposure experiment began. Animals were allowed ad libitum access to food and water and maintained with a 12-hour light/dark cycle. The mice were fed standard laboratory chow (Purina Mills International Diet # 5001). These conditions were continued until the time of sacrifice.
Mice were given standard water (pH 6.8) or water containing the following antimicrobial agents (at sub-therapeutic levels) in groups of 5-10 mice per experimental condition.
Body composition (fat mass, lean mass, percent [%] body fat) was determined using dual energy X-ray absorptiometry (DEXA) with a Lunar PIXImus II mouse densitometer (PIXImus, Fitchburg, Wis.) at the time of sacrifice. Each mouse was scanned individually. Data collected from the scan included fat and lean body mass, percent body fat, and bone mineral density.
Since maximal growth of mice in these experiments was during the first 2 weeks after weaning, a group of mice were sacrificed at two weeks, and bone mineral density (BMD) and fat phenotypes assessed. […]

Assay [2] concerns total fecal eubacterial and fungal levels. Put plainly: Total microbial counts in fecal pellets by qPCR (16S rRNA, fungal ITS2). As to the method: At approximately weekly intervals, a fresh fecal pellet was collected from each individual mouse and frozen at −80° C. until DNA could be extracted. At the time of sacrifice, a fecal pellet was collected, as well as the cecal contents.
Approximately 10 mg of fecal or cecal samples were suspended in a solution containing 500 μl of extraction buffer (200 mM Tris (pH 8.0), 200 mM NaCl, 20 mM EDTA), 210 μl of 20% SDS, 500 μl of a mixture of phenol:chloroform (pH 7.9, 24:24), and 500 μl of a slurry of 0.1 mm-diameter zirconia beads. Cells were lysed by mechanical disruption with a bead beater set on high for 2 min at room temperature, followed by extraction with phenol:chloroform (pH 7.9, 24:24), and precipitation with isopropanol. After the sample was suspended in 100 μl of TE buffer, the extraction products were further purified using a modified protocol from the ExtractMaster Fecal DNA extraction kit (Epicentre Technologies, Madison Wis.). […]
Analysis of total microbial counts in STAT Mice. […] This possibility was addressed by examining total fecal eubacterial levels in penicillin-treated and control mice by a standardized quantitative PCR (qPCR) using primers […] […] Total fungal levels were determined by qPCR using primers directed to the conserved ITS2 region in the fungal rrn operon ITS1F […] […]
On the technique in general: Real-time PCR tracks product formation cycle by cycle.

For assay [3], the system named is Butyryl CoA transferase (BCoAT)-encoding genes. Put plainly: Butyryl CoA transferase (BCoAT) gene qPCR on cecal specimens. As to conditions: cecal samples. As to the method:
(§1) Approximately 10 mg of fecal or cecal samples were suspended in a solution containing 500 μl of extraction buffer (200 mM Tris (pH 8.0), 200 mM NaCl, 20 mM EDTA), 210 μl of 20% SDS, 500 μl of a mixture of phenol:chloroform (pH 7.9, 24:24), and 500 μl of a slurry of 0.1 mm-diameter zirconia beads. Cells were lysed by mechanical disruption with a bead beater set on high for 2 min at room temperature, followed by extraction with phenol:chloroform (pH 7.9, 24:24), and precipitation with isopropanol. After the sample was suspended in 100 μl of TE buffer, the extraction products were further purified using a modified protocol from the ExtractMaster Fecal DNA extraction kit (Epicentre Technologies, Madison Wis.). Residual protein was precipitated using the Protein Precipitation reagent and inhibitors were removed through an Inhibitor Removal Resin spin column. The final product was suspended in 100 μl of TE buffer.
To test the effect of colonic microbiota on butyrate metabolism, a PCR assay was performed to detect genes encoding an enzyme, Butyryl CoA transferase (BCoAT), regardless of the taxonomic origin of the gene. The following primers were used: BCoATscrF […] (SEQ ID NO: 11) and BCoATscrR […] (SEQ ID NO: 12). BCoAT plays a central role in butyrate metabolism, which is an important short-chain fatty acid (SCFA) in colonic metabolism and provides energy to colonocytes (FIG. 14). […]

The test system of assay [4] is bacterial populations of cecal contents. The assay is described as follows: RAPD-PCR characterization of the microbial population in cecal contents. As to conditions: DNA from cecal contents; primers 1254, OPL-02, OPL-12. As to the method: as §1
Characterization of the microbial population in the fecal samples was performed using random amplified polymorphic DNA PCR(RAPD-PCR). […] The gels were stained with ethidium bromide and imaging was analyzed using imaged. […]
The positive control (+) was DNA from P. acnes strain VPI 0389. […] The letters A, B, C over columns C10, P1, and P2, respectively, were analyzed be measuring luminescence (see FIGS. 9A-B). […]

Assay [5] concerns Bacteroidetes and Firmicutes in the cecal microbiota. Put plainly: Phylum-level analysis of cecal bacterial populations by 454 sequencing of 16S rRNA V3 region. The settings on record: cecal contents, Mann-Whitney U-test. The procedure:
Approximately 10 mg of fecal or cecal samples were suspended in a solution containing 500 μl of extraction buffer (200 mM Tris (pH 8.0), 200 mM NaCl, 20 mM EDTA), 210 μl of 20% SDS, 500 μl of a mixture of phenol:chloroform (pH 7.9, 24:24), and 500 μl of a slurry of 0.1 mm-diameter zirconia beads. Cells were lysed by mechanical disruption with a bead beater set on high for 2 min at room temperature, followed by extraction with phenol:chloroform (pH 7.9, 24:24), and precipitation with isopropanol. […]
Phylum-level analysis of bacterial populations in […] mice. […] Mouse cecal contents were analyzed by 454 pryosequencing (Roche). […] For this experiment, the sequencing run produced 555,233 barcoded sequences with an average read length of 188±2.5 base pairs, an average read/barcode of 5784±676, and a read quality of 35. […] Order-level sequence data were summated to the phylum level and analyzed. […]
In another analysis, the proportion of all of the Eubacteria detected that were represented by the Firmicutes was examined. As shown in FIGS. 13A-B, % body fat measured by densitometry of the control and STAT mice (A) correlates with the ratio of Firmicute/Eubacteria as determined at the family level by 454 sequencing (B). […]

With `CN(C)[C@@H]1C(O)=C(C(N)=O)C(=O)[C@@]2(O)C(O)=C3C(=O)c4c(O)ccc(Cl)c4[C@@](C)(O)[C@H]3C[C@@H]12` [chlortetracycline, Chlortetracycline], the “more fat mass than controls (normalized mean fat mass)” value in assay [1] came out at 8.1±3.4%.

In the case of Penicillin, the “more fat mass than controls (normalized mean fat mass)” value in assay [1] turned out to be 22.9±8.1%. For the same compound, the “number of copies of bacterial or fungal rrn elements vs control” value in assay [2] was “no significant difference”. In assay [3], the “BCoAT densities compared to controls” value is given as “increase”. Moreover, the “RAPD-PCR products compared to control mice” value in assay [4] was “clear differences”.

Turning to `CN[C@H](CC(C)C)C(=O)N[C@H]1C(=O)N[C@@H](CC(N)=O)C(=O)N[C@H]2C(=O)N[C@H]3C(=O)N[C@H](C(=O)N[C@H](C(=O)O)c4cc(O)cc(O)c4-c4cc3ccc4O)[C@H](O)c3ccc(c(Cl)c3)Oc3cc2cc(c3O[C@@H]2O[C@H](CO)[C@@H](O)[C@H](O)[C@H]2O[C@H]2C[C@](C)(N)[C@H](O)[C@H](C)O2)Oc2ccc(cc2Cl)[C@H]1O` [vancomycin, Vancomycin], the “Firmicutes and B/F ratio compared to the controls” value in assay [5] is “statistically significant”. In addition, in assay [4], the “RAPD-PCR products compared to control mice” value is listed as “varying sets of bands”.
